# Measurements from the supplement of paper PMC10307832.
# Key:
# Experiment in all cases: relative viability (nuclei count vs DMSO), 5 days (fraction); higher = more cells survive
# [1] = compound: CC1=CC(=CC=C1)NC2=NC(=CS2)C3=CC=NC=C3
# Procedure, shortened: (§1)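 Viability here means nuclei in treated wells divided by nuclei in vehicle wells, reported as the median across plates. Only plates with control CV below 25% and at least one doubling passed. Lung cancer cell lines in 1536-well plates were exposed to five √10-spaced library-drug doses for 5 days and counted from 4× Hoechst images in MetaXpress.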
# Masitinib = compound: Cc1ccc(NC(=O)c2ccc(CN3CCN(C)CC3)cc2)cc1Nc1nc(-c2cccnc2)cs1 [Masitinib]
# Procedure, shortened: as §1
# [2] = compound: CC1=CC(=CC=C1)NC2=NC(=CS2)C3=CC=NC=C3 + CC(=O)Nc1cccc(-n2c(=O)n(C3CC3)c(=O)c3c(Nc4ccc(I)cc4F)n(C)c(=O)c(C)c32)c1 [Trametinib] (partner 0.02 µM)
# Procedure, shortened: (§2)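 Lung cancer cell lines in 1536-well plates were dosed by pin tool the day after seeding, either with one drug alone or with a fixed anchor-drug dose plus five library-drug doses (not always all listed) in √10 steps. After 5 days, cells were fixed and their nuclei stained in one step (final 0.05% Triton X-100, 1% formaldehyde, 1 ug/ml Hoechst), then counted on 4× images. Relative viability is the nuclei count in treated wells divided by that in vehicle wells. Values are medians of duplicate plates.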
# Masitinib + Navitoclax = compound: Cc1ccc(NC(=O)c2ccc(CN3CCN(C)CC3)cc2)cc1Nc1nc(-c2cccnc2)cs1 [Masitinib] + CC1(C)CCC(c2ccc(Cl)cc2)=C(CN2CCN(c3ccc(C(=O)NS(=O)(=O)c4ccc(N[C@H](CCN5CCOCC5)CSc5ccccc5)c(S(=O)(=O)C(F)(F)F)c4)cc3)CC2)C1 [Navitoclax] (partner 0.5 µM)
# Procedure, shortened: as §2
Cell Line,relative viability ([1]; 0.08 µM),relative viability ([1]; 0.253 µM),relative viability ([1]; 0.8 µM),relative viability ([1]; 2.53 µM),relative viability ([1]; 8 µM),relative viability (Masitinib; 0.01 µM),relative viability (Masitinib; 0.03162 µM),relative viability (Masitinib; 0.1 µM),relative viability (Masitinib; 0.3162 µM),relative viability (Masitinib; 1 µM),relative viability ([2]; first compound 0.08 µM),relative viability ([2]; first compound 0.253 µM),relative viability ([2]; first compound 0.8 µM),relative viability ([2]; first compound 2.53 µM),relative viability ([2]; first compound 8 µM),relative viability (Masitinib + Navitoclax; first compound 0.01 µM),relative viability (Masitinib + Navitoclax; first compound 0.03162 µM),relative viability (Masitinib + Navitoclax; first compound 0.1 µM),relative viability (Masitinib + Navitoclax; first compound 0.3162 µM),relative viability (Masitinib + Navitoclax; first compound 1 µM)
LK-2,0.816,0.98,1.27,0.793,1.41,1.09,0.89,1.23,1.19,1.08,0.817,0.806,0.951,0.772,1.33,1.01,0.855,1.06,1.21,0.885
NCI-H2228,0.838,0.948,0.784,0.91,0.726,0.998,0.808,1.16,1.04,1.06,0.418,0.48,0.501,0.44,0.385,0.899,1.05,1.08,0.705,0.817
NCI-H322M,0.819,0.845,0.948,1.02,0.961,0.934,0.948,0.933,0.897,0.848,0.482,0.534,0.509,0.552,0.52,1.18,1.15,1.3,1.22,1.26
NCI-H1993,0.67,0.788,0.768,0.792,0.876,0.91,0.867,0.986,0.826,0.917,0.514,0.517,0.596,0.348,0.461,0.921,–,0.944,0.651,0.885
NCI-H2170,0.901,1.01,0.945,0.942,0.824,0.843,0.933,0.983,1.04,0.991,0.945,0.935,0.833,0.86,0.668,0.683,0.486,0.546,0.577,0.559
LXF-289,0.942,0.987,0.974,0.974,0.915,0.806,0.973,0.941,1,1.01,0.639,0.674,0.648,0.739,0.606,0.843,0.927,0.966,0.992,0.934
NCI-H2405,0.851,0.918,0.85,0.915,0.901,0.859,0.953,0.907,0.973,0.932,0.566,0.571,0.591,–,0.552,0.874,1.01,1.07,0.731,0.825
NCI-H2023,0.898,0.94,0.926,0.876,0.633,0.952,1.01,0.984,0.922,0.901,0.592,0.617,0.429,0.375,0.179,1.05,0.981,1.12,0.925,0.92
HCC-15,0.916,0.936,1.02,0.915,0.807,0.774,0.983,0.836,0.962,0.959,0.369,0.383,0.373,0.348,0.343,0.667,0.606,0.819,0.647,0.725
HCC-44,0.862,0.795,0.843,0.797,0.859,0.816,1.01,0.978,0.871,0.961,0.939,0.847,0.701,0.687,0.695,0.84,0.84,0.952,0.806,0.977
COR-L23,0.981,0.986,0.926,0.877,0.989,1.02,0.969,1.06,0.984,0.981,0.44,0.598,0.59,0.568,0.567,1.13,0.892,1.19,1.29,1.14
HCC-78,0.781,0.789,0.811,0.817,0.971,0.891,0.814,0.956,0.789,0.902,0.505,0.666,0.617,0.563,0.753,0.722,0.822,0.839,0.77,0.763
NCI-H1355,0.769,0.73,0.768,0.694,0.65,0.813,0.723,0.851,0.762,0.966,0.388,0.298,0.275,0.294,0.269,0.956,0.842,1,0.754,0.946
NCI-H838,0.823,0.891,0.894,0.835,0.846,0.867,0.855,0.955,0.907,0.929,0.446,0.458,0.443,0.372,0.407,1.06,0.936,1.14,1.01,1.11
NCI-H2126,0.881,0.864,0.893,0.824,0.863,0.908,0.996,0.978,0.847,0.931,0.509,0.528,0.426,0.476,0.485,0.761,0.807,0.842,0.823,0.798
BEN,0.928,0.95,0.913,0.897,1.03,1.06,0.845,1.16,0.953,0.975,0.82,1.16,0.99,0.994,0.898,0.066,0.0657,0.066,0.0612,0.194

Cell Line,relative viability ([1]; 0.08 µM),relative viability ([1]; 0.253 µM),relative viability ([1]; 0.8 µM),relative viability ([1]; 2.53 µM),relative viability ([1]; 8 µM),relative viability (Masitinib; 0.01 µM),relative viability (Masitinib; 0.03162 µM),relative viability (Masitinib; 0.1 µM),relative viability (Masitinib; 0.3162 µM),relative viability (Masitinib; 1 µM),relative viability ([2]; first compound 0.08 µM),relative viability ([2]; first compound 0.253 µM),relative viability ([2]; first compound 0.8 µM),relative viability ([2]; first compound 2.53 µM),relative viability ([2]; first compound 8 µM),relative viability (Masitinib + Navitoclax; first compound 0.01 µM),relative viability (Masitinib + Navitoclax; first compound 0.03162 µM),relative viability (Masitinib + Navitoclax; first compound 0.1 µM),relative viability (Masitinib + Navitoclax; first compound 0.3162 µM),relative viability (Masitinib + Navitoclax; first compound 1 µM)
EKVX,0.884,0.933,0.795,0.89,0.82,0.627,0.86,0.805,0.717,0.927,0.29,0.308,–,0.313,0.319,–,0.688,0.865,0.577,0.968
NCI-H1651,0.95,0.918,1.03,0.87,0.963,0.899,0.97,0.954,0.988,0.971,0.825,0.795,0.755,0.82,0.794,1.11,1,1.15,1.02,1.1
NCI-H2087,0.951,0.895,1.01,0.877,0.93,0.961,1.22,1.07,1.18,1.01,0.178,0.195,0.246,0.164,0.181,0.966,1.02,1.1,1.08,0.963
NCI-H1944,0.871,0.912,0.958,0.765,0.809,–,0.972,–,0.799,0.955,0.345,0.409,0.39,0.362,0.357,–,1.02,0.799,1,0.995
LC-2-ad,0.877,0.916,0.967,0.839,0.785,0.806,1.01,0.951,0.966,0.944,0.862,0.881,0.826,0.839,0.8,0.486,0.412,0.667,0.485,0.408
COR-L 105,0.742,0.901,0.818,0.776,0.667,0.944,0.894,0.976,0.856,0.897,0.442,0.465,0.454,0.424,0.38,0.747,0.688,0.781,0.926,0.774
NCI-H1437,0.976,0.882,0.938,0.874,0.856,0.838,0.93,1.06,0.986,0.85,0.439,0.48,0.434,0.274,0.313,1.07,1.01,1.08,1.1,1.06
H3255,0.916,0.931,0.984,0.934,0.903,0.743,0.986,0.766,0.784,0.906,0.597,0.602,0.569,0.585,0.403,0.441,0.409,0.496,0.351,0.409
NCI-H2009,0.877,0.944,0.98,0.945,0.893,0.806,0.991,0.922,0.994,0.981,0.249,0.271,0.265,0.267,0.278,1.16,1.12,1.16,1.17,1.13
NCI-H1755,0.926,0.942,0.866,0.857,0.697,–,0.935,0.886,1.02,0.935,0.734,0.735,0.612,0.642,0.522,–,0.975,1.1,0.931,0.894
HOP-62,0.952,0.972,1.08,0.997,0.966,0.954,0.995,0.962,1.08,1.01,0.371,0.324,0.345,0.328,0.266,0.93,1.02,0.76,1.11,1.05
LOU-NH91,0.826,0.849,0.943,0.905,0.851,0.839,0.888,0.925,0.838,0.904,0.704,0.734,0.721,0.754,0.728,0.651,0.653,0.791,0.589,0.673
ChaGo-K-1,0.997,1.01,0.973,1.03,0.814,1.17,0.988,1.12,1.1,0.984,0.903,0.882,0.858,0.929,0.839,1.36,0.979,1.31,1.1,0.839
NCI-H23,0.879,0.808,1.01,0.835,0.972,0.888,0.926,1.03,0.933,0.916,0.371,0.199,0.424,0.388,0.419,0.879,0.789,0.966,0.706,0.872
PC-3 [JPC-3],0.941,0.936,0.927,0.868,0.91,0.95,0.951,1.04,1.04,1.02,0.602,–,0.658,0.606,0.572,0.768,0.682,0.806,0.659,0.787
NCI-H520,0.922,1.06,1.03,1.08,0.943,1.01,1.11,1.24,0.999,1.01,0.592,0.671,0.757,0.707,0.716,1.21,–,1.17,1.05,1.08
